Tested on: differentiated Thp1 monocytes
Test: In-vitro monocyte stimulation, TNFα and IL1β in supernatant by ELISA
Assay type: cell-based, human
Settings: for IL-1β in supernatant vs PBS control / TNFα in supernatant vs PBS control: differentiated Thp1 monocytes, 16 h, beta-pseudouridine 10 mM, allantoin 0.3 mg/mL
Text: Among significant metabolites (p<0.05, q<0.1) in our agnostic approach, five nucleic acid metabolites (e.g., beta-pseudouridine, 1-methyladenosine, N-2-methylguanosine, N-6-carbamoylthreonyladenosine, and allantoin) were identified for in vitro monocyte stimulation experiments. See, Table 2. These nucleic acid metabolites may function as damage-associated molecular patterns, and stimulate TNFα and IL1β similar to HMGB-1 and LPS. Bleiblo et al. (2012) “The role of immunostimulatory nucleic acids in septic shock” Int J Clin Exp Med 5:1-23
THP-1 cells (American Type Cell Collection, Manassas, Va., USA) were cultured in suspension in RPMI1640 media (Gibco, Grand Island, N.Y., USA) supplemented with 10% fetal bovine serum, 2 mM L-glutamine, 100 U/mL penicillin, 100 […], and 100 µM sodium pyruvate (all from Gibco). To differentiate the monocytes, 0.33×10^6 cells/mL were suspended in media and treated with 5 ng/mL PMA and then plated. After 48 h, adhered cells were washed three times in PBS and then treated for 16 h with compounds of interest at concentrations described. All compounds were dissolved in endotoxin-free water.
Endotoxin was measured at 61.5-153.8 pg per 250 µL treatment of 10 mM dose beta-pseudouridine, compared to 4,000 pg/mL in LPS-positive control. After 16 h media was collected and TNFα and IL1β levels determined by ELISA (R&D Systems, Minneapolis, Minn., USA) according to manufacturer's instructions. Experiments were repeated after treatment with viral inhibitory peptide of TLR4 (VIPER) and polymyxin B (PMB).

Cytokine (TNFα) levels in the presence of TLR4-receptor inhibitor VIPER (beta-pseudouridine 10 mM with VIPER (TLR4-antagonist), 16 h (FIG. 5D)) | SMILES | IL-1β in supernatant vs PBS control | Cytokine (TNFα) stimulation, concentration dependence (beta-pseudouridine 0.0001-10 mM, 16 h (FIG. 5C)) | Cytokine (TNFα) levels in the presence of polymyxin B (beta-pseudouridine 10 mM with polymyxin B (PMB; 10 μM), 16 h (FIG. 5D)) | TNFα in supernatant vs PBS control | IL-1β in supernatant vs PBS control (listed as beta-pseudouridine) | TNFα in supernatant vs PBS control (listed as beta-pseudouridine)
– | NC(=O)NC1NC(=O)NC1=O (centres unmarked) [allantoin] | significantly increased | – | – | – | – | –
significantly abrogated | O=c1[nH]cc([C@@H]2O[C@H](CO)[C@@H](O)[C@H]2O)c(=O)[nH]1 [pseudouridine] | increased | concentration-dependent | remained significantly elevated | increased | stimulated significant release | stimulated significant release

— patent publication US10533989B2, “Metabolomics in pneumonia and sepsis” (University of Pittsburgh—Of the Commonwealth System of …, priority 2012, dated 2020)
